Source: ChEMBL document CHEMBL1909046, “DrugMatrix in vitro pharmacology data”

What was measured:
[1] = DRUGMATRIX: Sodium/nucleoside co-transporter radioligand binding (ligand: nitrobenzylthioinosine); type: cell membranes, Cavia porcellus, Dunkin-Hartley, Cerebral cortex, Membrane; conditions: Not Active = under 50% inhibition at 10 µM
[2] = molecular target: T1, Type-2 angiotensin II receptor (Homo sapiens, UniProt P50052); type: cell-based; conditions: cho-k1; note: in other assays of this panel Not Active means under 50% inhibition at 10 µM
T1 sequence (P50052 whole entry): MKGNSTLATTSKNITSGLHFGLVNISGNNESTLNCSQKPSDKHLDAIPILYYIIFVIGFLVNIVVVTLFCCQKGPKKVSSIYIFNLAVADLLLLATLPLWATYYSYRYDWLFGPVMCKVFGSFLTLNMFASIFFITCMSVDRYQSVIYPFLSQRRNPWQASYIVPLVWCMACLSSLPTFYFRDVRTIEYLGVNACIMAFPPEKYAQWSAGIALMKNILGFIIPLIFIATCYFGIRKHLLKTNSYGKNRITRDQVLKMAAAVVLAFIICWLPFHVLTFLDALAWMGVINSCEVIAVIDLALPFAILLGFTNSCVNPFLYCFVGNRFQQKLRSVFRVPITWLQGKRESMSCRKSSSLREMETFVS

[3] = DRUGMATRIX: beta-Lactamase enzyme inhibition (substrate: Nitrocefin); parameters: species or system Bacillus cereus; conditions: Not Active = under 50% inhibition at 10 µM
[4] = molecular target: 5-hydroxytryptamine receptor 6 (Homo sapiens, UniProt P50406); type: cell membranes, HeLa, Membrane; conditions: hela; note: in other assays of this panel Not Active means under 50% inhibition at 10 µM
[5] = molecular target: T2, Vasoactive intestinal polypeptide receptor 1 (Homo sapiens, UniProt P32241); type: cell membranes, Membrane; conditions: ht-29; note: in other assays of this panel Not Active means under 50% inhibition at 10 µM
T2 sequence (P32241 whole entry): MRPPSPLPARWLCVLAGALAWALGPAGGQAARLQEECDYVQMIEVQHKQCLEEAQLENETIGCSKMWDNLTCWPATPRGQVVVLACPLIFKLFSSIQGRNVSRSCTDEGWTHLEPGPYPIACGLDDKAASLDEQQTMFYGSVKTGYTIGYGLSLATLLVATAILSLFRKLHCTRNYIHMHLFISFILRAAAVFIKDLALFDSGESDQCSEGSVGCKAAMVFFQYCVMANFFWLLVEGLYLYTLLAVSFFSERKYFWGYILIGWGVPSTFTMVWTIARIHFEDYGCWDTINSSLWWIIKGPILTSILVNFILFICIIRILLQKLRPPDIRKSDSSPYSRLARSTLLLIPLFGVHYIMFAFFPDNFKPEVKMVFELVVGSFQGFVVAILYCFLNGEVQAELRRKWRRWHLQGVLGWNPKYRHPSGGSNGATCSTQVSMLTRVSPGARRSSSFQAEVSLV

Vasopressin V1a receptor = Vasopressin V1a receptor (Homo sapiens, UniProt P37288); type: cell membranes, Membrane; conditions: hek293; note: in other assays of this panel Not Active means under 50% inhibition at 10 µM
Cannabinoid receptor 1 = Cannabinoid receptor 1 (Homo sapiens, UniProt P21554); type: cell membranes, Membrane; conditions: chem-1; note: in other assays of this panel Not Active means under 50% inhibition at 10 µM
[6] = molecular target: Prostaglandin G/H synthase 1 (Homo sapiens, UniProt P23219); assay: biochemical; type: tissue-based, Platelet; conditions: platelet
D(3) dopamine receptor = D(3) dopamine receptor (Homo sapiens, UniProt P35462); assay: DRUGMATRIX: Dopamine D3 radioligand binding (ligand: [3H] Spiperone); type: cell membranes, CHO, Membrane; conditions: cho
[7] = molecular target: T3, 3-hydroxy-3-methylglutaryl-coenzyme A reductase (Homo sapiens, UniProt P04035); parameters: species or system Escherichia coli
T3 sequence (P04035 whole entry): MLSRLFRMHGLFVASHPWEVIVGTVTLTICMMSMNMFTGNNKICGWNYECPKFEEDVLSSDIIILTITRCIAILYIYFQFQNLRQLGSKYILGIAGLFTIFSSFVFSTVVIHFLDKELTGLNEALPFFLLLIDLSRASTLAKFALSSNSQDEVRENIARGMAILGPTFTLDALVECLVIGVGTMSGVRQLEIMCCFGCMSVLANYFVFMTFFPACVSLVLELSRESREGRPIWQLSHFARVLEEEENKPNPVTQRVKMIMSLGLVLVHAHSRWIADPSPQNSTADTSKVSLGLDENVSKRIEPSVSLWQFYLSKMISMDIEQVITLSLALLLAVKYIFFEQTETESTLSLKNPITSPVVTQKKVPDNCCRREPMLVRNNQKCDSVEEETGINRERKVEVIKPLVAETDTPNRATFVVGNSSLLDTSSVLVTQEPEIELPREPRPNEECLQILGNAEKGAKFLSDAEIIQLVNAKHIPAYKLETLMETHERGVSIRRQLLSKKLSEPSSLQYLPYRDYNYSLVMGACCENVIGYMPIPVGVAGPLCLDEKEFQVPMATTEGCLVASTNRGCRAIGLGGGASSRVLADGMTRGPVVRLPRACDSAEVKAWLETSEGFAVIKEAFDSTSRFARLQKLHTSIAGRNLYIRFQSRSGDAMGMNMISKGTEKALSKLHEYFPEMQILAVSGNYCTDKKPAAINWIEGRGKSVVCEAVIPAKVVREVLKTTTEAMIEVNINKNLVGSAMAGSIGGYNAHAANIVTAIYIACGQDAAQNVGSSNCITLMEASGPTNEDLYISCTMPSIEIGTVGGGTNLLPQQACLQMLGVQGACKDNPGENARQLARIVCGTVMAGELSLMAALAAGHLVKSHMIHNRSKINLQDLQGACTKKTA

Nitric oxide synthase 1 = Nitric oxide synthase 1 (Rattus norvegicus, UniProt P29476); type: tissue-based, Cerebellum; note: in other assays of this panel Not Active means under 50% inhibition at 10 µM
[8] = molecular target: cGMP-specific 3',5'-cyclic phosphodiesterase (Homo sapiens, UniProt O76074); assay: DRUGMATRIX: Phosphodiesterase PDE5 enzyme inhibition (substrate: [3H]cGMP + cGMP); type: tissue-based, Platelet; conditions: platelet; Not Active = under 50% inhibition at 10 µM
Neutrophil elastase = molecular target: T4, Neutrophil elastase (Homo sapiens, UniProt P08246); type: tissue-based
T4 sequence (P08246 whole entry): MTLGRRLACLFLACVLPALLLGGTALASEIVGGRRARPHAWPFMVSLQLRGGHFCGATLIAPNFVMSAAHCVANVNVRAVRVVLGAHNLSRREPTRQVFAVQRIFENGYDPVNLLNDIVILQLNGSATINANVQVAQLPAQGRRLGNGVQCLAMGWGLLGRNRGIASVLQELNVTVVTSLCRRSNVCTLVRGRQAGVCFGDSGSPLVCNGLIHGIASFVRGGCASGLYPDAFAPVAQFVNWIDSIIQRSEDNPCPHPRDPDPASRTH

[9] = molecular target: Receptor tyrosine-protein kinase erbB-2 (Homo sapiens, UniProt P04626); assay: biochemical; type: cell-based, Insect cells; conditions: insect cells
[10] = molecular target: 5-hydroxytryptamine receptor 1B (Rattus norvegicus, UniProt P28564); type: cell membranes, Wistar, Cerebral cortex, Membrane; note: in other assays of this panel Not Active means under 50% inhibition at 10 µM
Cytochrome P450 2E1 = Cytochrome P450 2E1 (Homo sapiens, UniProt P05181); conditions: bti-tn-5b1-4; note: in other assays of this panel Not Active means under 50% inhibition at 10 µM

Sequence of Nitric oxide synthase 1 (P29476 whole entry): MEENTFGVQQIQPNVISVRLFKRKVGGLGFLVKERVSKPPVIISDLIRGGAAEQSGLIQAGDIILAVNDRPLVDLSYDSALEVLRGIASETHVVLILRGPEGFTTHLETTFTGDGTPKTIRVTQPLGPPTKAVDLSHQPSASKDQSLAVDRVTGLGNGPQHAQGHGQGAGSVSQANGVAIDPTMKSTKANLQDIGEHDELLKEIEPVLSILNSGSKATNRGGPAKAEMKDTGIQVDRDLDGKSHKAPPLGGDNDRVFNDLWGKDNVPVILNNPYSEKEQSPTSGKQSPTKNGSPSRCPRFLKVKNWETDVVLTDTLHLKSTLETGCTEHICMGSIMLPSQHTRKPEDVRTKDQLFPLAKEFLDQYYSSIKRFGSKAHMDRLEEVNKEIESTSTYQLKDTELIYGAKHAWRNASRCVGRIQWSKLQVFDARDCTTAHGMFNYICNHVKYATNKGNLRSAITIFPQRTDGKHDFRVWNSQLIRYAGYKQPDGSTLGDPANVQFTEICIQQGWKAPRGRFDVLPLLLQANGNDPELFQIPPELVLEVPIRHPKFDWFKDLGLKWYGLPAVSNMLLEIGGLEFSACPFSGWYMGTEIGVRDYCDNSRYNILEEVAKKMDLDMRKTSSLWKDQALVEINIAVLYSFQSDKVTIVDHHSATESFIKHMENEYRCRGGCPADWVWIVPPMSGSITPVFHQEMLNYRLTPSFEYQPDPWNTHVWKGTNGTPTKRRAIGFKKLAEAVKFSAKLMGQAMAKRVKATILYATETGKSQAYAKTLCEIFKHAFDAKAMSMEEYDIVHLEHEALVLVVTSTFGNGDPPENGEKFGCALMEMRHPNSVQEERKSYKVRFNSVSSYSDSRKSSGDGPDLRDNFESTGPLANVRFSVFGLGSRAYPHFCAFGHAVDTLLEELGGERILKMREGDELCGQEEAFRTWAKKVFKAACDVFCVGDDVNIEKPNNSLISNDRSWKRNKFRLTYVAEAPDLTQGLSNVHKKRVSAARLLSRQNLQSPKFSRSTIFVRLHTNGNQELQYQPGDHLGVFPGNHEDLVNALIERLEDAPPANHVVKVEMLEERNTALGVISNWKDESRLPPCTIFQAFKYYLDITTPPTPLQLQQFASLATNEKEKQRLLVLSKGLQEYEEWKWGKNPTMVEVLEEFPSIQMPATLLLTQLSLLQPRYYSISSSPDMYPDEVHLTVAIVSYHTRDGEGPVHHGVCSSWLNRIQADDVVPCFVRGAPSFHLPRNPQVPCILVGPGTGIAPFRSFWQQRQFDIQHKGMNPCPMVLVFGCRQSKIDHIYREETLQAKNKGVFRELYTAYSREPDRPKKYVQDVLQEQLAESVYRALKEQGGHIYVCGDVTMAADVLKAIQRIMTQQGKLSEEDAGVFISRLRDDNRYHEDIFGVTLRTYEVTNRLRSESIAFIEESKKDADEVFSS
Sequence of Prostaglandin G/H synthase 1 (P23219 whole entry): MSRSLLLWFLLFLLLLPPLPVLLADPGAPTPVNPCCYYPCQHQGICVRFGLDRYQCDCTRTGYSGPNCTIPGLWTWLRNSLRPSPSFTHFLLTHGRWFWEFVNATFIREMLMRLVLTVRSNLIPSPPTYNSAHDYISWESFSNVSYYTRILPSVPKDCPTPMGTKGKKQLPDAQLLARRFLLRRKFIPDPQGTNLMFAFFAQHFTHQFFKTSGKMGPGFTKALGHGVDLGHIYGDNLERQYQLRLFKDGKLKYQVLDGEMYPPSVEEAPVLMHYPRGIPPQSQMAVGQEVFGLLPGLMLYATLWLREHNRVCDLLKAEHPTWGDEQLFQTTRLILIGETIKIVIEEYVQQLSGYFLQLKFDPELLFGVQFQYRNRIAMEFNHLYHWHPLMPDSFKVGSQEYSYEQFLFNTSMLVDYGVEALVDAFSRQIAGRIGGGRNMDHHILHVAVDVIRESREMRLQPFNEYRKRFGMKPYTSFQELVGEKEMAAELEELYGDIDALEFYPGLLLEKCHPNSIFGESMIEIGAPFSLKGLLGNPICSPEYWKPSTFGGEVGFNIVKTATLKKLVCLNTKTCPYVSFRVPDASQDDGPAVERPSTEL
Sequence of 5-hydroxytryptamine receptor 1B (P28564 whole entry): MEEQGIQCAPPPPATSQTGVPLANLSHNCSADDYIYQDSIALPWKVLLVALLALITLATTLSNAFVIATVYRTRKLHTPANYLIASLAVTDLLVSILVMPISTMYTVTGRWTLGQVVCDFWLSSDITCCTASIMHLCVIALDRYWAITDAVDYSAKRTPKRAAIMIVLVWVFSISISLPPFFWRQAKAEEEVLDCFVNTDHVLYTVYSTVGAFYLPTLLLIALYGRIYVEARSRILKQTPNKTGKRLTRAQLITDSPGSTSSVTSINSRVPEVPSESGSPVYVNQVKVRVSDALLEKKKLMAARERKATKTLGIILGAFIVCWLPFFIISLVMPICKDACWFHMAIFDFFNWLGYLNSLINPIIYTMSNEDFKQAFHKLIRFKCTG
Sequence of Cannabinoid receptor 1 (P21554 whole entry): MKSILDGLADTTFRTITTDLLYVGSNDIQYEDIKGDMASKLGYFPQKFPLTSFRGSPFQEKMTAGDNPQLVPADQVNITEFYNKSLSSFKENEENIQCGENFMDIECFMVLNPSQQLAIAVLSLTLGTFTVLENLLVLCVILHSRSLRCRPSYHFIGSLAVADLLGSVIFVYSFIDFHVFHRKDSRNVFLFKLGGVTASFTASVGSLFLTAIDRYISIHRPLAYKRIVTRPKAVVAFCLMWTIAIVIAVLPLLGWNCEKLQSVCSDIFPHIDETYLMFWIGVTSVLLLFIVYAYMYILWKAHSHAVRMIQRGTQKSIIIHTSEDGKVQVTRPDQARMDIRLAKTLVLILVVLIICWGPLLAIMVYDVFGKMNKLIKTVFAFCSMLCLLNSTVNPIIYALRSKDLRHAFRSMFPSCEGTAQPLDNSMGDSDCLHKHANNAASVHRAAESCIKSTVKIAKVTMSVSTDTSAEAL
Sequence of 5-hydroxytryptamine receptor 6 (P50406 whole entry): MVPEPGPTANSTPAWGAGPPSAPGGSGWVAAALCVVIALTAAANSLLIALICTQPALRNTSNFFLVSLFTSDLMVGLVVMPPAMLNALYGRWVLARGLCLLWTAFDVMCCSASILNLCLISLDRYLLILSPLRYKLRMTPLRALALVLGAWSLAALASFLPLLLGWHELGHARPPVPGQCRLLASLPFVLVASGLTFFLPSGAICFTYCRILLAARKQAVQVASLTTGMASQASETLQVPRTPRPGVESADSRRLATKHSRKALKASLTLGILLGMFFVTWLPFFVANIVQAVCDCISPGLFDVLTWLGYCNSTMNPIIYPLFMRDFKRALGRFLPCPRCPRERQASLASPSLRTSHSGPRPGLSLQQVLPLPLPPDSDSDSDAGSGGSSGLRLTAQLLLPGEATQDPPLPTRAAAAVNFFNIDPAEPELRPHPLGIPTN
Sequence of D(3) dopamine receptor (P35462 whole entry): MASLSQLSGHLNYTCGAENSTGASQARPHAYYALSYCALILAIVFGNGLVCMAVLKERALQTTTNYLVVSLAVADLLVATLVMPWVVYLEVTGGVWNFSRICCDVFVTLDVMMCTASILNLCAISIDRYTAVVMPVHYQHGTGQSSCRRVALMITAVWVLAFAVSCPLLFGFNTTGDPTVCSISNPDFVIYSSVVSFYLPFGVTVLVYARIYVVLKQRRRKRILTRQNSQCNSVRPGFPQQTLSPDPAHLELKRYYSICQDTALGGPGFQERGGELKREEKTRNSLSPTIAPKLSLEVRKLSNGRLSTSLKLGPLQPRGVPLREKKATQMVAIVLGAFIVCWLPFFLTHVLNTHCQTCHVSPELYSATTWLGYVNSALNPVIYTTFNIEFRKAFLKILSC
Sequence of Receptor tyrosine-protein kinase erbB-2 (P04626 whole entry): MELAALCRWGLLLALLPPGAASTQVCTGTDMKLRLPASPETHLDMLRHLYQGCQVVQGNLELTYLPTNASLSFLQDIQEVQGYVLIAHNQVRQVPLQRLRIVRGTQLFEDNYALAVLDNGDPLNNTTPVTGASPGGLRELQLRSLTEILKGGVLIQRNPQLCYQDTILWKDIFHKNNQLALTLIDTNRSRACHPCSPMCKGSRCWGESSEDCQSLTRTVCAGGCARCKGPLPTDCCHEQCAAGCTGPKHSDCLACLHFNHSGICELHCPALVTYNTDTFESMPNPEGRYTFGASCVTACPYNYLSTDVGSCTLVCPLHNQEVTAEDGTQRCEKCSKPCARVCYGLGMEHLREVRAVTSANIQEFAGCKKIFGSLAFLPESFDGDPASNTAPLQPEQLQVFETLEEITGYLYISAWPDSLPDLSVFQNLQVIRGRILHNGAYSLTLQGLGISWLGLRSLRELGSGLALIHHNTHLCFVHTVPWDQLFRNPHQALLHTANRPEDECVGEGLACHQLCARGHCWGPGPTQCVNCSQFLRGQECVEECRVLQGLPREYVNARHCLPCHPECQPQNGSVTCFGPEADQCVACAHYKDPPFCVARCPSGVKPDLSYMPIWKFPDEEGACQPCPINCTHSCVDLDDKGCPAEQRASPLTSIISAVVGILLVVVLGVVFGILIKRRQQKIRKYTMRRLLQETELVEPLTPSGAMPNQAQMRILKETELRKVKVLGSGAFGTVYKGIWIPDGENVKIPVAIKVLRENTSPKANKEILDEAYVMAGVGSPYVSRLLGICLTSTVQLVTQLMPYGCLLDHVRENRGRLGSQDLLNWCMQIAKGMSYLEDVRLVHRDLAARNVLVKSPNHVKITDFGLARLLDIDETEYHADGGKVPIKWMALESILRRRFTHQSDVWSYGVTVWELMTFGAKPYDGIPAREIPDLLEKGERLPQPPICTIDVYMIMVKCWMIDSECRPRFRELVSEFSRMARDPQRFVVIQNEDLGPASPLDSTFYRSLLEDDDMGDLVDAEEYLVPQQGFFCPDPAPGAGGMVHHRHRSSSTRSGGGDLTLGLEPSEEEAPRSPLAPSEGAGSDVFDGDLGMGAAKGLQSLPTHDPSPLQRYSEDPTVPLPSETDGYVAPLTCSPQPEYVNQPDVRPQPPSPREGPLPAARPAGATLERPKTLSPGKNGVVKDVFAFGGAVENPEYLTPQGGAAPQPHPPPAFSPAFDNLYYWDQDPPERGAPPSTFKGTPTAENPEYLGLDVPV

CC[C@H]1OC(=O)[C@H](C)[C@@H](O[C@H]2C[C@@](C)(OC)[C@@H](O)[C@H](C)O2)[C@H](C)[C@@H](O[C@@H]2O[C@H](C)C[C@H](N(C)C)[C@H]2O)[C@](C)(O)C[C@@H](C)/C(=N\OCOCCOC)[C@H](C)[C@@H](O)[C@]1(C)O [ROXITHROMYCIN]
Not Active: IC50 [1] | Ki [1] | IC50 [2] | IC50 [3] | Ki [3] | IC50 [4] | IC50 [5] | IC50 (Vasopressin V1a receptor) | IC50 (Cannabinoid receptor 1) | IC50 [6] | IC50 (D(3) dopamine receptor) | IC50 [7] | IC50 (Nitric oxide synthase 1) | IC50 [8] | IC50 (Neutrophil elastase) | IC50 [9] | IC50 [10] | IC50 (Cytochrome P450 2E1) | Ki (Cytochrome P450 2E1)

NC(=O)c1ccccc1O [SALICYLAMIDE]
Not Active: IC50 [1] | Ki [1] | IC50 [2] | IC50 [3] | Ki [3] | IC50 [4] | IC50 [5] | IC50 (Vasopressin V1a receptor) | IC50 (Cannabinoid receptor 1) | IC50 [6] | IC50 (D(3) dopamine receptor) | IC50 [7] | IC50 (Nitric oxide synthase 1) | IC50 [8] | IC50 (Neutrophil elastase) | IC50 [9] | IC50 [10] | IC50 (Cytochrome P450 2E1) | Ki (Cytochrome P450 2E1)

Cc1ncc([N+](=O)[O-])n1CC(C)O (stereo not drawn) [SECNIDAZOLE]
Not Active: IC50 [1] | Ki [1] | IC50 [2] | IC50 [3] | Ki [3] | IC50 [4] | IC50 [5] | IC50 (Vasopressin V1a receptor) | IC50 (Cannabinoid receptor 1) | IC50 [6] | IC50 (D(3) dopamine receptor) | IC50 [7] | IC50 (Nitric oxide synthase 1) | IC50 [8] | IC50 (Neutrophil elastase) | IC50 [9] | IC50 [10] | IC50 (Cytochrome P450 2E1) | Ki (Cytochrome P450 2E1)

CC(=O)S[C@@H]1CC2=CC(=O)CC[C@]2(C)[C@H]2CC[C@@]3(C)[C@@H](CC[C@@]34CCC(=O)O4)[C@H]12 [SPIRONOLACTONE]
Not Active: IC50 [1] | Ki [1] | IC50 [2] | IC50 [3] | Ki [3] | IC50 [4] | IC50 [5] | IC50 (Vasopressin V1a receptor) | IC50 (Cannabinoid receptor 1) | IC50 [6] | IC50 (D(3) dopamine receptor) | IC50 [7] | IC50 (Nitric oxide synthase 1) | IC50 [8] | IC50 (Neutrophil elastase) | IC50 [9] | IC50 [10] | IC50 (Cytochrome P450 2E1) | Ki (Cytochrome P450 2E1)

C[C@]12Cc3c[nH]nc3C[C@@H]1CC[C@@H]1[C@@H]2CC[C@@]2(C)[C@H]1CC[C@]2(C)O [STANOZOLOL]
Not Active: IC50 [1] | Ki [1] | IC50 [2] | IC50 [3] | Ki [3] | IC50 [4] | IC50 [5] | IC50 (Vasopressin V1a receptor) | IC50 (Cannabinoid receptor 1) | IC50 [6] | IC50 (D(3) dopamine receptor) | IC50 [7] | IC50 (Nitric oxide synthase 1) | IC50 [8] | IC50 (Neutrophil elastase) | IC50 [9] | IC50 [10] | IC50 (Cytochrome P450 2E1) | Ki (Cytochrome P450 2E1)

CN(N=O)C(=O)N[C@@H](C=O)[C@@H](O)[C@H](O)[C@H](O)CO [STREPTOZOCIN]
Not Active: IC50 [1] | Ki [1] | IC50 [2] | IC50 [3] | Ki [3] | IC50 [4] | IC50 [5] | IC50 (Vasopressin V1a receptor) | IC50 (Cannabinoid receptor 1) | IC50 [6] | IC50 (D(3) dopamine receptor) | IC50 [7] | IC50 (Nitric oxide synthase 1) | IC50 [8] | IC50 (Neutrophil elastase) | IC50 [9] | IC50 [10] | IC50 (Cytochrome P450 2E1) | Ki (Cytochrome P450 2E1)

Cc1cc(NS(=O)(=O)c2ccc(N)cc2)no1 [SULFAMETHOXAZOLE]
Not Active: IC50 [1] | Ki [1] | IC50 [2] | IC50 [3] | Ki [3] | IC50 [4] | IC50 [5] | IC50 (Vasopressin V1a receptor) | IC50 (Cannabinoid receptor 1) | IC50 [6] | IC50 (D(3) dopamine receptor) | IC50 [7] | IC50 (Nitric oxide synthase 1) | IC50 [8] | IC50 (Neutrophil elastase) | IC50 [9] | IC50 [10] | IC50 (Cytochrome P450 2E1) | Ki (Cytochrome P450 2E1)
